Reference: the supplement of paper PMC10307832

Tests used:
Assay in all cases: relative viability (nuclei count vs DMSO), 5 days (fraction); higher = more cells survive
[1] = compound: C=CCNC1=C2C[C@@H](C)C[C@H](OC)[C@H](O)[C@@H](C)/C=C(\C)[C@H](OC(N)=O)[C@@H](OC)/C=C\C=C(/C)C(=O)NC(=CC1=O)C2=O [17-AAG] + O=C(c1cc(Cc2n[nH]c(=O)c3ccccc23)ccc1F)N1CCN(C(=O)C2CC2)CC1 [Olaparib] (partner 8 µM)
Method in brief: (§1)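 Relative viability equals treated-well nuclei counts divided by vehicle-well nuclei counts. Counts came from 4× images of lung cancer cell lines grown in 1536-well plates for 5 days after pin-tool dosing on the day after seeding. Dosing used one drug alone or a fixed anchor-drug dose plus five library-drug doses (not always all listed) in √10 steps, and values are medians of duplicate plates.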

[2] = compound: C=CCNC1=C2C[C@@H](C)C[C@H](OC)[C@H](O)[C@@H](C)/C=C(\C)[C@H](OC(N)=O)[C@@H](OC)/C=C\C=C(/C)C(=O)NC(=CC1=O)C2=O [17-AAG] + CC(=O)Nc1cccc(-n2c(=O)n(C3CC3)c(=O)c3c(Nc4ccc(I)cc4F)n(C)c(=O)c(C)c32)c1 [Trametinib] (partner 0.02 µM)
Method in brief: as §1

[3] = compound: C=CCNC1=C2C[C@@H](C)C[C@H](OC)[C@H](O)[C@@H](C)/C=C(\C)[C@H](OC(N)=O)[C@@H](OC)/C=C\C=C(/C)C(=O)NC(=CC1=O)C2=O [17-AAG] + CS(=O)(=O)N1CCN(Cc2cc3nc(-c4cccc5[nH]ncc45)nc(N4CCOCC4)c3s2)CC1 [Pictilisib] (partner 1 µM)
Method in brief: as §1

[4] = compound: C=CCNC1=C2C[C@@H](C)C[C@H](OC)[C@H](O)[C@@H](C)/C=C(\C)[C@H](OC(N)=O)[C@@H](OC)/C=C\C=C(/C)C(=O)NC(=CC1=O)C2=O [17-AAG] + CC(C)C[C@H](NC(=O)[C@H](Cc1ccccc1)NC(=O)c1cnccn1)B(O)O [Bortezomib] (partner 0.002 µM)
Method in brief: as §1

NCI-H2405
relative viability ([1]; first compound 0.00128 µM): 0.797
relative viability ([1]; first compound 0.004048 µM): 0.856
relative viability ([1]; first compound 0.0128 µM): 0.275
relative viability ([1]; first compound 0.04048 µM): 0.233
relative viability ([1]; first compound 0.128 µM): 0.168
relative viability ([2]; first compound 0.00128 µM): 0.663
relative viability ([2]; first compound 0.004048 µM): 0.482
relative viability ([2]; first compound 0.0128 µM): 0.338
relative viability ([2]; first compound 0.04048 µM): 0.204
relative viability ([2]; first compound 0.128 µM): 0.171
relative viability ([3]; first compound 0.00128 µM): 0.521
relative viability ([3]; first compound 0.004048 µM): 0.248
relative viability ([3]; first compound 0.0128 µM): 0.175
relative viability ([3]; first compound 0.04048 µM): 0.179
relative viability ([3]; first compound 0.128 µM): 0.164
relative viability ([4]; first compound 0.00128 µM): 1.04
relative viability ([4]; first compound 0.004048 µM): 1.03
relative viability ([4]; first compound 0.0128 µM): 1
relative viability ([4]; first compound 0.04048 µM): 0.675
relative viability ([4]; first compound 0.128 µM): 0.217

NCI-H3122
relative viability ([1]; first compound 0.00128 µM): 0.598
relative viability ([1]; first compound 0.004048 µM): 0.61
relative viability ([1]; first compound 0.0128 µM): 0.538
relative viability ([1]; first compound 0.04048 µM): 0.288
relative viability ([1]; first compound 0.128 µM): 0.124
relative viability ([2]; first compound 0.00128 µM): 0.23
relative viability ([2]; first compound 0.004048 µM): 0.283
relative viability ([2]; first compound 0.0128 µM): 0.173
relative viability ([2]; first compound 0.04048 µM): 0.177
relative viability ([2]; first compound 0.128 µM): 0.106
relative viability ([3]; first compound 0.00128 µM): 0.489
relative viability ([3]; first compound 0.004048 µM): 0.375
relative viability ([3]; first compound 0.0128 µM): 0.195
relative viability ([3]; first compound 0.04048 µM): 0.194
relative viability ([3]; first compound 0.128 µM): 0.161
relative viability ([4]; first compound 0.00128 µM): 0.926
relative viability ([4]; first compound 0.004048 µM): 0.954
relative viability ([4]; first compound 0.0128 µM): 0.506
relative viability ([4]; first compound 0.04048 µM): 0.488
relative viability ([4]; first compound 0.128 µM): 0.177

PC-3 [JPC-3]
relative viability ([1]; first compound 0.00128 µM): 1.23
relative viability ([1]; first compound 0.004048 µM): 1.17
relative viability ([1]; first compound 0.0128 µM): 1.16
relative viability ([1]; first compound 0.04048 µM): 0.581
relative viability ([1]; first compound 0.128 µM): 0.697
relative viability ([2]; first compound 0.00128 µM): 0.681
relative viability ([2]; first compound 0.004048 µM): 0.711
relative viability ([2]; first compound 0.0128 µM): 0.68
relative viability ([2]; first compound 0.04048 µM): 0.472
relative viability ([2]; first compound 0.128 µM): 0.551
relative viability ([3]; first compound 0.00128 µM): 0.795
relative viability ([3]; first compound 0.004048 µM): 0.791
relative viability ([3]; first compound 0.0128 µM): 0.727
relative viability ([3]; first compound 0.128 µM): 0.586
relative viability ([4]; first compound 0.00128 µM): 0.824
relative viability ([4]; first compound 0.004048 µM): 0.848
relative viability ([4]; first compound 0.0128 µM): 0.814
relative viability ([4]; first compound 0.128 µM): 0.707

PC-14
relative viability ([1]; first compound 0.00128 µM): 0.298
relative viability ([1]; first compound 0.004048 µM): 0.132
relative viability ([1]; first compound 0.0128 µM): 0.0665
relative viability ([1]; first compound 0.04048 µM): 0.0524
relative viability ([1]; first compound 0.128 µM): 0.0698
relative viability ([2]; first compound 0.00128 µM): 0.619
relative viability ([2]; first compound 0.004048 µM): 0.111
relative viability ([2]; first compound 0.0128 µM): 0.0838
relative viability ([2]; first compound 0.04048 µM): 0.101
relative viability ([2]; first compound 0.128 µM): 0.0786
relative viability ([3]; first compound 0.00128 µM): 0.654
relative viability ([3]; first compound 0.004048 µM): 0.219
relative viability ([3]; first compound 0.0128 µM): 0.057
relative viability ([3]; first compound 0.04048 µM): 0.067
relative viability ([3]; first compound 0.128 µM): 0.0563
relative viability ([4]; first compound 0.00128 µM): 0.915
relative viability ([4]; first compound 0.004048 µM): 0.822
relative viability ([4]; first compound 0.0128 µM): 0.808
relative viability ([4]; first compound 0.04048 µM): 0.12
relative viability ([4]; first compound 0.128 µM): 0.101

RERF-LC-KJ
relative viability ([1]; first compound 0.00128 µM): 0.954
relative viability ([1]; first compound 0.004048 µM): 0.648
relative viability ([1]; first compound 0.0128 µM): 0.291
relative viability ([1]; first compound 0.04048 µM): 0.249
relative viability ([1]; first compound 0.128 µM): 0.216
relative viability ([2]; first compound 0.00128 µM): 0.837
relative viability ([2]; first compound 0.004048 µM): 0.864
relative viability ([2]; first compound 0.0128 µM): 0.737
relative viability ([2]; first compound 0.04048 µM): 0.404
relative viability ([2]; first compound 0.128 µM): 0.244
relative viability ([3]; first compound 0.00128 µM): 0.591
relative viability ([3]; first compound 0.004048 µM): 0.688
relative viability ([3]; first compound 0.0128 µM): 0.324
relative viability ([3]; first compound 0.04048 µM): 0.242
relative viability ([3]; first compound 0.128 µM): 0.21
relative viability ([4]; first compound 0.00128 µM): 1.17
relative viability ([4]; first compound 0.004048 µM): 1.17
relative viability ([4]; first compound 0.0128 µM): 0.888
relative viability ([4]; first compound 0.04048 µM): 0.288
relative viability ([4]; first compound 0.128 µM): 0.303

SK-LU-1
relative viability ([1]; first compound 0.00128 µM): 0.512
relative viability ([1]; first compound 0.004048 µM): 0.439
relative viability ([1]; first compound 0.0128 µM): 0.301
relative viability ([1]; first compound 0.04048 µM): 0.153
relative viability ([1]; first compound 0.128 µM): 0.173
relative viability ([2]; first compound 0.00128 µM): 0.436
relative viability ([2]; first compound 0.004048 µM): 0.473
relative viability ([2]; first compound 0.0128 µM): 0.217
relative viability ([2]; first compound 0.04048 µM): 0.195
relative viability ([2]; first compound 0.128 µM): 0.216
relative viability ([3]; first compound 0.00128 µM): 0.558
relative viability ([3]; first compound 0.004048 µM): 0.374
relative viability ([3]; first compound 0.0128 µM): 0.199
relative viability ([3]; first compound 0.04048 µM): 0.127
relative viability ([3]; first compound 0.128 µM): 0.141
relative viability ([4]; first compound 0.00128 µM): 0.976
relative viability ([4]; first compound 0.004048 µM): 0.903
relative viability ([4]; first compound 0.0128 µM): 0.311
relative viability ([4]; first compound 0.04048 µM): 0.238
relative viability ([4]; first compound 0.128 µM): 0.197

SW 1573
relative viability ([1]; first compound 0.00128 µM): 0.441
relative viability ([1]; first compound 0.004048 µM): 0.234
relative viability ([1]; first compound 0.0128 µM): 0.182
relative viability ([1]; first compound 0.04048 µM): 0.113
relative viability ([1]; first compound 0.128 µM): 0.0907
relative viability ([2]; first compound 0.00128 µM): 0.589
relative viability ([2]; first compound 0.004048 µM): 0.381
relative viability ([2]; first compound 0.0128 µM): 0.161
relative viability ([2]; first compound 0.04048 µM): 0.117
relative viability ([2]; first compound 0.128 µM): 0.0829
relative viability ([3]; first compound 0.00128 µM): 0.549
relative viability ([3]; first compound 0.004048 µM): 0.531
relative viability ([3]; first compound 0.0128 µM): 0.206
relative viability ([3]; first compound 0.04048 µM): 0.19
relative viability ([3]; first compound 0.128 µM): 0.104
relative viability ([4]; first compound 0.00128 µM): 1.23
relative viability ([4]; first compound 0.004048 µM): 1.02
relative viability ([4]; first compound 0.0128 µM): 0.687
relative viability ([4]; first compound 0.04048 µM): 0.225
relative viability ([4]; first compound 0.128 µM): 0.117

UMC-11
relative viability ([1]; first compound 0.00128 µM): 0.519
relative viability ([1]; first compound 0.004048 µM): 0.376
relative viability ([1]; first compound 0.0128 µM): 0.261
relative viability ([1]; first compound 0.04048 µM): 0.0963
relative viability ([1]; first compound 0.128 µM): 0.174
relative viability ([2]; first compound 0.00128 µM): 0.672
relative viability ([2]; first compound 0.004048 µM): 0.773
relative viability ([2]; first compound 0.0128 µM): 0.629
relative viability ([2]; first compound 0.04048 µM): 0.234
relative viability ([2]; first compound 0.128 µM): 0.145
relative viability ([3]; first compound 0.00128 µM): 0.824
relative viability ([3]; first compound 0.004048 µM): 0.809
relative viability ([3]; first compound 0.0128 µM): 0.662
relative viability ([3]; first compound 0.04048 µM): 0.219
relative viability ([3]; first compound 0.128 µM): 0.143
relative viability ([4]; first compound 0.00128 µM): 0.667
relative viability ([4]; first compound 0.004048 µM): 0.616
relative viability ([4]; first compound 0.0128 µM): 0.629
relative viability ([4]; first compound 0.04048 µM): 0.227
relative viability ([4]; first compound 0.128 µM): 0.12
